Results from PMC3767324, “Synthesis, Characterization, and BSA Binding Studies of Some New Benzamides Related to Schiff Base” (ISRN Organic Chemistry, 2013).
Values after ≈ are worked out from the molar mass of the structure shown. Where two headings read alike, the source gives them in different places. One block for each molecule: values may come before it.

Experiments:
[1] = test system: A. niger; assay: agar disc diffusion, zone of inhibition; assay type: cell-based; details: A. niger, discs 6 mm, test compounds 100 µg/mL in DMSO, standards 10 µg/disc, 28°C 48 h, average of three replicates; for zone of inhibition at 100 µg/mL: Aspergillus niger, read-out: zone of inhibition
Experimental: [The procedure below names another organism; the source lists this organism under the same test.] (§1) The in vitro antimicrobial screening effects of the compounds (3 and 5a–j) were individually tested against a panel of bacteria and fungi including Staphylococcus aureus (NCIM 5021), Bacillus subtilis (NCIM 2999), Pseudomonas aeruginosa (NCIM 5029), Escherichia coli (NCIM 2574), Candida. albicans (NCIM 3471), and Aspergillus flavus (NCIM 524). Microbial strains were cultured overnight at 37°C in nutrient and potato dextrose agar medium. All the pure microbial strains were obtained from National Chemical Laboratory (NCL), Pune, India.
(§2) The antibacterial activity of compounds was determined by agar disc diffusion method. Briefly, a suspension of tested bacterial strains was spread on the nutrient agar medium and potato dextrose agar for fungi. The discs (6 mm in diameter) impregnated with test chemicals each dissolved in concentration (100 μg/mL in DMSO) were placed on the inoculated agar and these plates were kept at 4°C for 2 h. The plate was incubated at 37°C for 24 h in case of bacteria and 48 h at 28°C in case of fungi. streptomycin (10 μg/disc) and fluconazole (10 μg/disc) were used as the standards for antibacterial and antifungal activity, respectively. All the samples were performed in triplicate and the zone of inhibition was measured in millimeters.

[2] = test system: Aspergillus flavus (NCIM 524); assay: agar disc diffusion, zone of inhibition; assay type: cell-based; details: A. flavus, discs 6 mm, test compounds 100 µg/mL in DMSO, standards 10 µg/disc, 28°C 48 h, average of three replicates; for zone of inhibition at 100 µg/mL: Aspergillus flavus, NCIM524, read-out: zone of inhibition
Experimental: as §1, §2

[3] = test system: Bacillus subtilis (NCIM 2999); assay: agar disc diffusion, zone of inhibition; assay type: cell-based; details: B. subtilis, discs 6 mm, test compounds 100 µg/mL in DMSO, standards 10 µg/disc, 37°C 24 h, average of three replicates; for zone of inhibition at 100 µg/mL: Bacillus subtilis, NCIM2999, read-out: zone of inhibition
Experimental: as §1, §2

[4] = test system: Escherichia coli (NCIM 2574); assay: agar disc diffusion, zone of inhibition; assay type: cell-based; details: E. coli, discs 6 mm, test compounds 100 µg/mL in DMSO, standards 10 µg/disc, 37°C 24 h, average of three replicates; for zone of inhibition at 100 µg/mL: Escherichia coli, NCIM2574, read-out: zone of inhibition
Experimental: as §1, §2

[5] = test system: Pseudomonas aeruginosa (NCIM 5029); assay: agar disc diffusion, zone of inhibition; assay type: cell-based; details: P. aeruginosa, discs 6 mm, test compounds 100 µg/mL in DMSO, standards 10 µg/disc, 37°C 24 h, average of three replicates; for zone of inhibition at 100 µg/mL: Pseudomonas aeruginosa, NCIM5029, read-out: zone of inhibition
Experimental: as §1, §2

[6] = test system: Staphylococcus aureus (NCIM 5021); assay: agar disc diffusion, zone of inhibition; assay type: cell-based; details: S. aureus, discs 6 mm, test compounds 100 µg/mL in DMSO, standards 10 µg/disc, 37°C 24 h, average of three replicates; for zone of inhibition at 100 µg/mL: Staphylococcus aureus, NCIM5021, read-out: zone of inhibition
Experimental: as §1, §2

[7] = test system: A. niger; assay: minimum inhibitory concentration by dilution method; assay type: cell-based; details: A. niger, dilution method, average of three replicates
Experimental: [The procedure below names another organism; the source lists this organism under the same test.] as §1
(§3) The minimum inhibitory concentration of the synthesized compounds was determined by dilution method. The compounds were dissolved and then diluted using DMSO; two-fold serial concentrations of the compounds were employed to determine the MIC. In this method, the test concentrations of chemically synthesized compounds were made from 5 to 125 μg/mL.

[8] = test system: Aspergillus flavus (NCIM 524); assay: as above; assay type: cell-based; details: A. flavus, dilution method, average of three replicates
Experimental: as §1, §3

[9] = test system: Bacillus subtilis (NCIM 2999); assay: as above; assay type: cell-based; details: B. subtilis, dilution method, average of three replicates
Experimental: as §1, §3

[10] = test system: Escherichia coli (NCIM 2574); assay: as above; assay type: cell-based; details: E. coli, dilution method, average of three replicates
Experimental: as §1, §3

[11] = test system: Pseudomonas aeruginosa (NCIM 5029); assay: as above; assay type: cell-based; details: P. aeruginosa, dilution method, average of three replicates
Experimental: as §1, §3

[12] = test system: Staphylococcus aureus (NCIM 5021); assay: as above; assay type: cell-based; details: S. aureus, dilution method, average of three replicates
Experimental: as §1, §3

[13] = DPPH free radical scavenging activity; details: DPPH 0.1 mM, absorbance at 517 nm; triplicate, mean ± SD
Experimental: The capacity to scavenge the stable free radical 2,2-diphenyl-1-picrylhydrazyl (DPPH) was monitored according to the Blois method. The test samples (10–100 μL) were mixed with 1 mL of DPPH (0.1 mM) solution and filled up with methanol to a final volume of 4 mL. Absorbance of the resulting solution was measured at 517 nm in a visible spectrophotometer (Model 166, Systronics, India). The free radical scavenging rate of the reaction solution was calculated as a percentage (%) of DPPH decolouration using the equation (1) I(%)=(Ablank−Asample/Ablank)×100, where A blank is the absorbance of the control reaction mixture excluding the test compounds, and A sample is the absorbance of the test compounds. Radical scavenging potential was expressed as IC50 value, which represents the sample concentration at which 50% of the DPPH radicals were scavenged. Tests were carried out in triplicate and the results were expressed as mean values ± standard deviations.
DPPH radical scavenging activity evaluation is a standard assay in antioxidant activity studies and offers a rapid technique for screening the radical scavenging activity of specific compounds [24]. The free radical scavenging activity of newly synthesized compounds was tested by their ability to bleach the stable radical DPPH. The activity was monitored by following the absorption at 517 nm in a visible spectrophotometer. In the presence of any free radical scavenger, this odd electron pairs up and causes the diminishing of absorption band which is proportional to the number of electrons taken up. The activity was studied at different concentrations for each compound. […] Resulting from a color change from purple to yellow the absorbance decreased when the antioxidant molecule can quench DPPH free radical through donation of hydrogen atom or by electron donating to form a stable DPPH molecule.

[14] = superoxide radical scavenging assay (NBT, xanthine-xanthine oxidase system); assay type: biochemical; details: NBT reduction, pH 7.8, 560 nm, three replicates
Experimental: Superoxide radical scavenging activity was measured as described by Kovala-Demertzi et al., (2004). The assay is based on the reduction of nitroblue tetrazolium (NBT) by superoxide ions generated by the xanthine-xanthine oxidase system (X–XO). The reaction system contained 0.2 mM xanthine and 0.6 mM NBT in 0.1 M phosphate buffer, pH 7.8. The tested compounds were dissolved in methanol. The reaction was started by addition of XO (0.07 U mL^−1), an activity which allowed to yield the absorbance change between 0.03 and 0.04 per minute, at 560 nm. The extent of NBT reduction was followed spectrophotometrically, by measuring the increase of the absorbance at 560 nm. All the experiments were replicated three times. The IC50 of each compound was defined as the concentration which inhibited 50% of the NBT reduction by O2 ^•− produced in the X–XO system.
Superoxide anion radical is normally initially formed, and its effects can be magnified because it produces other kinds of free radicals and oxidizing agents. The enzymatic superoxide anion radical was generated by the xanthine/xanthine oxidase reaction system. The production of superoxide was estimated by the nitroblue tetrazolium method. […] Differently, in the m-position, methoxy and hydroxyl groups act as an electron-withdrawing properties, ([…]), which are possible for providing a destabilizing effect.

[15] = Aspergillus niger, read-out: MIC
[16] = Aspergillus flavus, NCIM524, read-out: MIC
[17] = Bacillus subtilis, NCIM2999, read-out: MIC
[18] = Escherichia coli, NCIM2574, read-out: MIC
[19] = Pseudomonas aeruginosa, NCIM5029, read-out: MIC
[20] = Staphylococcus aureus, NCIM5021, read-out: MIC

Compound: OC(Cn1cncn1)(Cn1cncn1)c1ccc(F)cc1F [Fluconazole, fluconazole, reference compound]
zone of inhibition at 100 µg/mL [1]: 16 mm
zone of inhibition at 100 µg/mL [2]: 19 mm
MIC [7, 15]: 5 µg/mL (≈ 16.3 µM)
MIC [8, 16]: 5 µg/mL (≈ 16.3 µM)

Compound: [H]/N=C(/N)N[C@H]1[C@H](O)[C@@H](O)[C@H](O[C@@H]2O[C@@H](C)[C@](O)(C=O)[C@H]2O[C@@H]2O[C@@H](CO)[C@H](O)[C@@H](O)[C@@H]2NC)[C@@H](N/C(N)=N\[H])[C@@H]1O [Streptomycin, streptomycin, reference compound]
zone of inhibition at 100 µg/mL [3]: 13.4 mm
zone of inhibition at 100 µg/mL [4]: 16.5 mm
zone of inhibition at 100 µg/mL [5]: 14 mm
zone of inhibition at 100 µg/mL [6]: 14.1 mm
MIC [9, 17]: 5 µg/mL (≈ 8.6 µM)
MIC [10, 18]: 5 µg/mL (≈ 8.6 µM)
MIC [11, 19]: 5 µg/mL (≈ 8.6 µM)
MIC [12, 20]: 5 µg/mL (≈ 8.6 µM)

Compound: O=C1O[C@H]([C@@H](O)CO)C(O)=C1O [AA, Ascorbic acid, reference compound]
IC50 DPPH [13]: 12.6 ± 0.43 µg/mL (≈ 71.5 µM)

Compound: COc1ccc(O)c(C(C)(C)C)c1 [BHA, butylated hydroxyanisole, reference compound]
IC50 Superoxide [14]: 13.4 ± 0.29 µg/mL (≈ 74.3 µM)

Compound: CC(=O)Nc1ccc(N=Cc2cc3ccccc3o2)cc1 [Compound 3, N-(4-((benzofuran-2-ylmethylene)amino)phenyl)acetamide]
zone of inhibition at 100 µg/mL [1]: 12.4 mm
zone of inhibition at 100 µg/mL [2]: 12.5 mm
zone of inhibition at 100 µg/mL [3]: 7 mm
zone of inhibition at 100 µg/mL [4]: 11 mm
zone of inhibition at 100 µg/mL [5]: 10 mm
zone of inhibition at 100 µg/mL [6]: 8 mm
MIC [7, 15]: 75 µg/mL (≈ 269 µM)
MIC [8, 16]: 75 µg/mL (≈ 269 µM)
MIC [9, 17]: 75 µg/mL (≈ 269 µM)
MIC [10, 18]: > 100 µg/mL
MIC [11, 19]: > 100 µg/mL
MIC [12, 20]: 75 µg/mL (≈ 269 µM)
IC50 DPPH [13]: 95.3 ± 0.76 µg/mL (≈ 342 µM)
IC50 Superoxide [14]: 85.1 ± 0.33 µg/mL (≈ 306 µM)

Second part, led by results:

MIC [7, 15]: 100 µg/mL (≈ 252 µM)
MIC [8, 16]: 75 µg/mL (≈ 189 µM)
MIC [9, 17]: 50 µg/mL (≈ 126 µM)
MIC [10, 18]: 100 µg/mL (≈ 252 µM)
MIC [11, 19]: 100 µg/mL (≈ 252 µM)
MIC [12, 20]: 50 µg/mL (≈ 126 µM)
IC50 DPPH [13]: 53 ± 0.04 µg/mL (≈ 134 µM)
IC50 Superoxide [14]: 49 ± 0.17 µg/mL (≈ 124 µM)
melting point: 187 °C
Compound: CC(=O)N(C(=O)c1ccccc1C)c1ccc(N=Cc2cc3ccccc3o2)cc1 [Compound 5f, N-acetyl-N-(4-((benzofuran-2-ylmethylene)amino)phenyl)-2-methylbenzamide]
zone of inhibition at 100 µg/mL [1]: 12 mm
zone of inhibition at 100 µg/mL [2]: 10.2 mm
zone of inhibition at 100 µg/mL [3]: 8 mm
zone of inhibition at 100 µg/mL [4]: 11 mm
zone of inhibition at 100 µg/mL [5]: 10 mm
zone of inhibition at 100 µg/mL [6]: 10 mm

MIC [7, 15]: 25 µg/mL (≈ 63.1 µM)
MIC [8, 16]: 25 µg/mL (≈ 63.1 µM)
MIC [9, 17]: 30 µg/mL (≈ 75.7 µM)
MIC [10, 18]: 50 µg/mL (≈ 126 µM)
MIC [11, 19]: 30 µg/mL (≈ 75.7 µM)
MIC [12, 20]: 50 µg/mL (≈ 126 µM)
IC50 DPPH [13]: 85.3 ± 0.14 µg/mL (≈ 215 µM)
IC50 Superoxide [14]: 92.0 ± 0.35 µg/mL (≈ 232 µM)
melting point: 193 °C
Compound: CC(=O)N(C(=O)Cc1ccccc1)c1ccc(N=Cc2cc3ccccc3o2)cc1 [Compound 5b, N-acetyl-N-(4-((benzofuran-2-ylmethylene)amino)phenyl)-2-phenylacetamide]
zone of inhibition at 100 µg/mL [1]: 12 mm
zone of inhibition at 100 µg/mL [2]: 15 mm
zone of inhibition at 100 µg/mL [3]: 10 mm
zone of inhibition at 100 µg/mL [4]: 10 mm
zone of inhibition at 100 µg/mL [5]: 11 mm
zone of inhibition at 100 µg/mL [6]: 10 mm

MIC [7]: 25 µg/mL (≈ 55.9 µM)
MIC [8]: 40 µg/mL (≈ 89.5 µM)
MIC [9]: 50 µg/mL (≈ 112 µM)
MIC [10]: 50 µg/mL (≈ 112 µM)
MIC [11]: 50 µg/mL (≈ 112 µM)
MIC [12]: 30 µg/mL (≈ 67.1 µM)
IC50 DPPH [13]: 48.9 ± 0.11 µg/mL (≈ 109 µM)
IC50 Superoxide [14]: 55.3 ± 0.04 µg/mL (≈ 124 µM)
Compound: CC(=O)N(C(=O)OCc1ccccc1Cl)c1ccc(N=Cc2cc3ccccc3o2)cc1 [Compound 5d, 2-chlorobenzylacetyl(4-((benzofuran-2-ylmethylene)amino)phenyl)carbamate]
zone of inhibition [1]: 13.7 mm
zone of inhibition [2]: 11 mm
zone of inhibition [3]: 14 mm
zone of inhibition [4]: 10 mm
zone of inhibition [5]: 13 mm
zone of inhibition [6]: 12 mm
